Measured values from the supplement of paper PMC10331698.
± gives the standard deviation of the averaged measurements.

Legend:
Assay in all cases: level (log10 ratio to DMSO vehicle control); higher = higher biomarker level / cell amount than vehicle control
[1] = compound: O=S(=O)(OCC(F)(F)F)C(F)(F)C(F)(F)C(F)(F)C(F)(F)F [2,2,2-Trifluoroethyl perfluorobutanesulfonate]; settings: in DMSO
Protocol: (§1)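 BioMAP Diversity Plus panel of 12 human primary cell co-culture systems (3C, 4H, LPS, SAg, BT, BF4T, BE3C, CASM3C, HDF3CGF, KF3CT, MyoF, Mphg). Compounds were added 1 h before stimulation and left for 24 h (MyoF 48 h; BT 72 h for soluble read-outs or 6 d for IgG). Biomarkers were read by ELISA, cytotoxicity by SRB, PBMC viability and proliferation by Alamar Blue. Each well value was divided by the mean of 8 DMSO control wells on the same plate and log10 transformed; duplicate blinded samples were tested at 4 concentrations.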

[2] = compound: OCCC(F)(F)C(F)(F)C(F)(F)C(F)(F)C(F)(F)C(F)(F)C(F)(F)C(F)(F)F [8:2 Fluorotelomer alcohol]; settings: 6700 nM; in DMSO
Protocol: as §1

[3] = compound: O=P(O)(O)CCC(F)(F)C(F)(F)C(F)(F)C(F)(F)C(F)(F)C(F)(F)F [2-(Perfluorohexyl)ethylphosphonic acid]; settings: in DMSO
Protocol: as §1

[4] = compound: C=CC(=O)OCCC(F)(F)C(F)(F)C(F)(F)C(F)(F)C(F)(F)C(F)(F)C(F)(F)C(F)(F)F [8:2 Fluorotelomer acrylate]; settings: in DMSO
Protocol: as §1

[5] = compound: O=C(Cl)C(F)(F)C(F)(F)C(F)(F)C(=O)Cl [Hexafluoroglutaryl chloride]; settings: in DMSO
Protocol: as §1

[6] = compound: C=C(C)C(=O)OCC(F)(F)C(F)(F)C(F)(F)F [2,2,3,3,4,4,4-Heptafluorobutyl methacrylate]; settings: in DMSO
Protocol: as §1

[7] = compound: OCCCCC(F)(F)C(F)(F)C(F)(F)C(F)(F)F [4:4 Fluorotelomer alcohol]; settings: in DMSO
Protocol: as §1

Row | Test System | level (log10) ([1]; 6700 nM) | level (log10) ([1]; 20000 nM) | level (log10) ([1]; 60000 nM) | level (log10) [2] | level (log10) ([3]; 6700 nM) | level (log10) ([3]; 20000 nM) | level (log10) ([3]; 60000 nM) | level (log10) ([4]; 6700 nM) | level (log10) ([4]; 20000 nM) | level (log10) ([4]; 60000 nM) | level (log10) ([5]; 6700 nM) | level (log10) ([5]; 20000 nM) | level (log10) ([5]; 60000 nM) | level (log10) ([6]; 6700 nM) | level (log10) ([6]; 20000 nM) | level (log10) ([6]; 60000 nM) | level (log10) ([7]; 6700 nM) | level (log10) ([7]; 20000 nM) | level (log10) ([7]; 60000 nM)
1 | BF4T:MMP-1 | -0.0035 ± 0.015 | -0.0005 ± 0.015 | -0.0095 ± 0.0021 | 0.0035 ± 0.016 | -0.0045 ± 0.0092 | -0.004 | 0.0035 ± 0.026 | 0.002 ± 0.0057 | 0.0025 ± 0.0021 | 0.0175 ± 0.022 | -0.0125 ± 0.018 | 0.003 ± 0.0028 | 0 ± 0.017 | 0.009 ± 0.018 | -0.001 ± 0.013 | 0.009 ± 0.0057 | 0.0075 ± 0.018 | 0.0045 ± 0.025 | 0.009 ± 0.03
2 | LPS:CD62E/E-Selectin | 0.0025 ± 0.019 | -0.004 ± 0.02 | -0.0795 ± 0.043 | 0.012 ± 0.018 | -0.0005 ± 0.015 | -0.004 ± 0.011 | 0.0465 ± 0.012 | 0.002 ± 0.011 | 0 ± 0.011 | 0.019 ± 0.014 | 0.0025 ± 0.0035 | 0.003 ± 0.02 | 0.038 ± 0.031 | 0.001 ± 0.0071 | 0.0075 ± 0.026 | -0.0015 ± 0.0035 | -0.0015 ± 0.033 | -0.0135 ± 0.028 | -0.012 ± 0.0099
3 | BE3C:EGFR | 0.006 ± 0.0028 | 0.007 | 0.0025 ± 0.00071 | -0.019 ± 0.0014 | -0.0045 ± 0.0021 | -0.015 ± 0.014 | 0.0005 ± 0.022 | -0.0155 ± 0.0021 | -0.015 ± 0.013 | 0.003 ± 0.025 | 0.009 ± 0.0099 | 0.0015 ± 0.0021 | -0.0345 ± 0.0092 | 0.0195 ± 0.03 | 0.0155 ± 0.029 | 0.012 ± 0.017 | 0.025 ± 0.0085 | 0.022 ± 0.038 | 0.02 ± 0.065
4 | BE3C:HLA-DR | -0.001 ± 0.011 | 0.005 ± 0.0085 | -0.011 ± 0.0014 | -0.02 | -0.0045 ± 0.018 | -0.012 ± 0.021 | 0.01 ± 0.038 | -0.0045 ± 0.011 | 0.009 ± 0.017 | 0.019 ± 0.034 | -0.0075 ± 0.013 | -0.016 ± 0.0057 | -0.007 ± 0.0071 | -0.0005 ± 0.015 | 0.006 ± 0.016 | 0.003 ± 0.035 | -0.0005 ± 0.018 | -0.0075 ± 0.0064 | -0.0035 ± 0.016
5 | 4H:CD106/VCAM-1 | -0.004 ± 0.025 | -0.008 ± 0.014 | 0.0015 ± 0.0021 | -0.008 ± 0.013 | 0.0205 ± 0.0064 | 0.025 ± 0.0085 | -0.01 ± 0.0028 | -0.0045 ± 0.035 | -0.023 ± 0.051 | -0.0255 ± 0.026 | 0.0015 ± 0.0092 | -0.005 ± 0.021 | 0.001 ± 0.011 | 0.012 ± 0.04 | 0.019 ± 0.028 | 0.02 ± 0.025 | 0 ± 0.0057 | -0.01 ± 0.0028 | 0.005 ± 0.0028
6 | LPS:CCL2/MCP-1 | -0.0345 ± 0.012 | -0.0435 ± 0.022 | -0.101 ± 0.067 | 0.0055 ± 0.011 | -0.016 | -0.0075 ± 0.005 | -0.0105 ± 0.019 | -0.0105 ± 0.0021 | -0.014 ± 0.0071 | 0.015 ± 0.041 | 0.0165 ± 0.005 | 0.008 ± 0.041 | 0.0265 ± 0.033 | 0.0125 ± 0.015 | -0.002 ± 0.0028 | 0.018 ± 0.02 | -0.006 ± 0.0071 | -0.002 ± 0.023 | -0.006 ± 0.011
7 | BT:B cell Proliferation | 0.019 ± 0.0042 | 0.0295 ± 0.019 | 0.024 ± 0.023 | 0.0245 ± 0.0064 | 0.031 ± 0.0071 | 0.0135 ± 0.00071 | 0.051 ± 0.021 | 0.0155 ± 0.0021 | 0.0035 ± 0.00071 | -0.0005 ± 0.04 | 0.01 | -0.024 ± 0.0057 | -0.0095 ± 0.026 | -0.0305 ± 0.076 | -0.02 ± 0.086 | -0.058 ± 0.011 | 0.0045 ± 0.018 | 0.005 ± 0.027 | -0.0015 ± 0.016
8 | LPS:CD106/VCAM-1 | 0.0055 ± 0.052 | -0.0075 ± 0.015 | -0.076 ± 0.013 | -0.0785 ± 0.042 | -0.021 ± 0.021 | -0.0185 ± 0.0021 | -0.011 ± 0.023 | -0.029 ± 0.013 | -0.05 ± 0.013 | -0.053 ± 0.0099 | -0.0235 ± 0.011 | -0.0135 ± 0.012 | -0.011 ± 0.013 | -0.0175 ± 0.013 | -0.018 ± 0.0085 | -0.02 ± 0.0085 | -0.001 ± 0.011 | 0.0045 ± 0.018 | 0.003 ± 0.02
9 | BE3C:CXCL9/MIG | 0.031 ± 0.0085 | 0.0065 ± 0.0078 | 0.0135 ± 0.0021 | -0.0095 ± 0.00071 | -0.008 ± 0.0057 | -0.0075 ± 0.0021 | 0.003 ± 0.02 | -0.0115 ± 0.0035 | -0.0075 ± 0.00071 | 0.0115 ± 0.021 | 0.018 ± 0.011 | 0.007 ± 0.0099 | 0.0065 ± 0.022 | 0.003 ± 0.0085 | 0.0025 ± 0.0035 | 0.01 ± 0.0071 | 0.01 ± 0.0042 | -0.0025 ± 0.005 | 0.0095 ± 0.0092
10 | BF4T:CD54/ICAM-1 | -0.0115 ± 0.016 | -0.014 ± 0.037 | -0.0295 ± 0.016 | -0.0365 ± 0.015 | -0.022 ± 0.018 | -0.0245 ± 0.00071 | -0.0125 ± 0.0092 | -0.0145 ± 0.013 | -0.026 ± 0.0042 | -0.0285 ± 0.026 | 0.0065 ± 0.0064 | -0.004 | 0.016 ± 0.017 | -0.0025 ± 0.022 | -0.0085 ± 0.021 | -0.005 ± 0.023 | -0.0055 ± 0.0035 | -0.0085 ± 0.011 | 0.0025 ± 0.0021
11 | SAg:CD40 | -0.0165 ± 0.018 | -0.019 ± 0.017 | -0.0635 ± 0.049 | 0 ± 0.0042 | 0.007 ± 0.0028 | 0.0015 ± 0.00071 | -0.026 ± 0.0099 | -0.0085 ± 0.00071 | -0.0075 ± 0.0021 | -0.01 ± 0.017 | 0.0105 ± 0.042 | 0.0085 ± 0.0021 | -0.0085 ± 0.043 | -0.038 ± 0.02 | -0.032 ± 0.011 | -0.023 ± 0.025 | 0.01 ± 0.016 | 0.014 ± 0.0042 | 0.005 ± 0.0042
